Results reported in patent publication USRE31731E, “Herbicidal 4-trifluoromethyl-4-nitrodiphenyl ethers” (priority 1978, dated 1984).

What follows are molecules tested on Monocots (assay: Herbicidal activity, preemergence, monocot weeds (Table II)). Conditions: pre-emergence, 336 h, 2 lb./A., about 2 weeks, read-out: % control (percent of plants killed).
Format: in vivo
Method: (§1) Using the procedure described below, diphenyl ethers were evaluated for control of the following weeds: […]
(§2) barnyardgrass (Echinochloa crusgalli) crabgrass (Digitaria spp.) nutsedge (Cyperus esculentus)
(§3) At 2 and 4 pounds per acre:
(§4) **Bermudagrass (Cynodon dactylon)
(§5) *downy brome (Bromus tectorum) foxtail (Setaria faberii)
(§6) Johnsongrass (Sorghum halepense) […]
(§7) quackgrass (Agropyron repens)
(§8) *ryegrass (Lolium perenne)
(§9) *yellow millet (Panicum miliaceum)
(§10) The following test procedure is employed. Seeds of selected crops and weeds are planted in soil in flats. For preemergence tests, the flats are treated with the test compound immediately after the planting. For postemergence tests, the seeds are allowed to germinate, and after 2 weeks the flats are treated with the test compound. The compound to be evaluated is dissolved in acetone, diluted with water, and sprayed over the flats using a carrier volume equivalent to 50 gallons per acre at the rate of application (pounds per acre, lb/A.) specified in the tables. About 2 weeks after the application of the test compound, the state of growth of the plants is observed and the phytotoxic effect of the compound is evaluated. Table II gives the average percent control achieved by the test compounds in terms of the percent of the plants which are killed by the compounds.

Row | SMILES | pest or weed control at 2241.7 g/ha [%]
1 | CC(=O)CCOc1cc(Oc2ccc(C(F)(F)F)cc2Cl)ccc1[N+](=O)[O-] [Example 31] | 68
2 | O=C(O)COc1cc(Oc2ccc(C(F)(F)F)cc2Cl)ccc1[N+](=O)[O-] [Example 23] | 55
3 | CC(Oc1cc(Oc2ccc(C(F)(F)F)cc2Cl)ccc1[N+](=O)[O-])C(=O)O (stereo not drawn) [Example 25, 2-Chloro-α,α,α-trifluoro-p-tolyl-3-(1-carboxyethoxy)-4-nitrophenyl ether] | 40
4 | CCOCCOc1cc(Oc2ccc(C(F)(F)F)cc2Cl)ccc1[N+](=O)[O-] [Example 16] | 67
5 | O=[N+]([O-])c1ccc(Oc2ccc(C(F)(F)F)cc2Cl)cc1O [Example 10, 2-Chloro-α,α,α-trifluoro-p-tolyl-3-hydroxy-4-nitrophenyl ether] | 66

Same assay, conditions: pre-emergence, 336 h, 4 lb./A., about 2 weeks, read-out: % control (percent of plants killed)

Row | SMILES | pest or weed control at 4483.4 g/ha [%]
6 | CC(=O)CCOc1cc(Oc2ccc(C(F)(F)F)cc2Cl)ccc1[N+](=O)[O-] [Example 31] | 74
7 | O=C(O)COc1cc(Oc2ccc(C(F)(F)F)cc2Cl)ccc1[N+](=O)[O-] [Example 23] | 90
8 | CC(Oc1cc(Oc2ccc(C(F)(F)F)cc2Cl)ccc1[N+](=O)[O-])C(=O)O (stereo not drawn) [Example 25, 2-Chloro-α,α,α-trifluoro-p-tolyl-3-(1-carboxyethoxy)-4-nitrophenyl ether] | 87
9 | CCOCCOc1cc(Oc2ccc(C(F)(F)F)cc2Cl)ccc1[N+](=O)[O-] [Example 16] | 86
10 | O=[N+]([O-])c1ccc(Oc2ccc(C(F)(F)F)cc2Cl)cc1O [Example 10, 2-Chloro-α,α,α-trifluoro-p-tolyl-3-hydroxy-4-nitrophenyl ether] | 70

These molecules were tested on Dicots (assay: Herbicidal activity, preemergence, dicot weeds (Table II)). Conditions: pre-emergence, 336 h, 2 lb./A., about 2 weeks, read-out: % control (percent of plants killed).
Format: in vivo
Method: as §1
(§11) bindweed (Convolvulus arvensis) curly dock (Remex crispus) velvetleaf (Abutilon theophrasti) wild mustard (Brassica haber)
(§12) At 2 and 4 pounds per acre: […]
(§13) cocklebur (Xanthium pensylvanicum)
(§14) **coffeeweed (Sesbania macrocarpa)
(§15) *curly dock (Rumex crispus)
(§16) *lambsquarters (Chenopodium album) morningglory (Ipomoea purpurea)
(§17) *pigweed (Amaranthus retroflexus)
(§18) **ragweed (Ambrosia artemisiifolia)
(§19) *smartweed (Polygonum pensylvanicum)
(§20) **tomato (Lycopersicon esculentum)
(§21) *wild carrot (Daucus carota)
(§22) *wild mustard (Brassica haber)
as §10

Row | SMILES | pest or weed control at 2241.7 g/ha [%]
11 | CC(=O)CCOc1cc(Oc2ccc(C(F)(F)F)cc2Cl)ccc1[N+](=O)[O-] [Example 31] | 69
12 | O=C(O)COc1cc(Oc2ccc(C(F)(F)F)cc2Cl)ccc1[N+](=O)[O-] [Example 23] | 87
13 | CC(Oc1cc(Oc2ccc(C(F)(F)F)cc2Cl)ccc1[N+](=O)[O-])C(=O)O (stereo not drawn) [Example 25, 2-Chloro-α,α,α-trifluoro-p-tolyl-3-(1-carboxyethoxy)-4-nitrophenyl ether] | 93
14 | CCOCCOc1cc(Oc2ccc(C(F)(F)F)cc2Cl)ccc1[N+](=O)[O-] [Example 16] | 75
15 | O=[N+]([O-])c1ccc(Oc2ccc(C(F)(F)F)cc2Cl)cc1O [Example 10, 2-Chloro-α,α,α-trifluoro-p-tolyl-3-hydroxy-4-nitrophenyl ether] | 70

Same assay, conditions: pre-emergence, 336 h, 4 lb./A., about 2 weeks, read-out: % control (percent of plants killed)

Row | SMILES | pest or weed control at 4483.4 g/ha [%]
16 | CC(=O)CCOc1cc(Oc2ccc(C(F)(F)F)cc2Cl)ccc1[N+](=O)[O-] [Example 31] | 99
17 | O=C(O)COc1cc(Oc2ccc(C(F)(F)F)cc2Cl)ccc1[N+](=O)[O-] [Example 23] | 64
18 | CC(Oc1cc(Oc2ccc(C(F)(F)F)cc2Cl)ccc1[N+](=O)[O-])C(=O)O (stereo not drawn) [Example 25, 2-Chloro-α,α,α-trifluoro-p-tolyl-3-(1-carboxyethoxy)-4-nitrophenyl ether] | 88
19 | CCOCCOc1cc(Oc2ccc(C(F)(F)F)cc2Cl)ccc1[N+](=O)[O-] [Example 16] | 94
20 | O=[N+]([O-])c1ccc(Oc2ccc(C(F)(F)F)cc2Cl)cc1O [Example 10, 2-Chloro-α,α,α-trifluoro-p-tolyl-3-hydroxy-4-nitrophenyl ether] | 100

The molecules below were run on Monocots (assay: Herbicidal activity, postemergence, monocot weeds (Table II)). Conditions: post-emergence, 336 h, 2 lb./A., about 2 weeks, read-out: % control (percent of plants killed).
Format: in vivo
Method: as §1, §2, §3, §4, §5, §6, §7, §8, §9, §10

Row | SMILES | pest or weed control at 2241.7 g/ha [%]
21 | CC(=O)CCOc1cc(Oc2ccc(C(F)(F)F)cc2Cl)ccc1[N+](=O)[O-] [Example 31] | 68
22 | O=C(O)COc1cc(Oc2ccc(C(F)(F)F)cc2Cl)ccc1[N+](=O)[O-] [Example 23] | 71
23 | CC(Oc1cc(Oc2ccc(C(F)(F)F)cc2Cl)ccc1[N+](=O)[O-])C(=O)O (stereo not drawn) [Example 25, 2-Chloro-α,α,α-trifluoro-p-tolyl-3-(1-carboxyethoxy)-4-nitrophenyl ether] | 88
24 | CCOCCOc1cc(Oc2ccc(C(F)(F)F)cc2Cl)ccc1[N+](=O)[O-] [Example 16] | 82
25 | O=[N+]([O-])c1ccc(Oc2ccc(C(F)(F)F)cc2Cl)cc1O [Example 10, 2-Chloro-α,α,α-trifluoro-p-tolyl-3-hydroxy-4-nitrophenyl ether] | 17

Same assay, conditions: post-emergence, 336 h, 4 lb./A., about 2 weeks, read-out: % control (percent of plants killed)

Row | SMILES | pest or weed control at 4483.4 g/ha [%]
26 | CC(=O)CCOc1cc(Oc2ccc(C(F)(F)F)cc2Cl)ccc1[N+](=O)[O-] [Example 31] | 61
27 | O=C(O)COc1cc(Oc2ccc(C(F)(F)F)cc2Cl)ccc1[N+](=O)[O-] [Example 23] | 82
28 | CC(Oc1cc(Oc2ccc(C(F)(F)F)cc2Cl)ccc1[N+](=O)[O-])C(=O)O (stereo not drawn) [Example 25, 2-Chloro-α,α,α-trifluoro-p-tolyl-3-(1-carboxyethoxy)-4-nitrophenyl ether] | 97
29 | CCOCCOc1cc(Oc2ccc(C(F)(F)F)cc2Cl)ccc1[N+](=O)[O-] [Example 16] | 77
30 | O=[N+]([O-])c1ccc(Oc2ccc(C(F)(F)F)cc2Cl)cc1O [Example 10, 2-Chloro-α,α,α-trifluoro-p-tolyl-3-hydroxy-4-nitrophenyl ether] | 67

These molecules were tested on Dicots (assay: Herbicidal activity, postemergence, dicot weeds (Table II)). Conditions: post-emergence, 336 h, 2 lb./A., about 2 weeks, read-out: % control (percent of plants killed).
Format: in vivo
Method: as §1, §11, §12, §13, §14, §15, §16, §17, §18, §19, §20, §21, §22, §10

Row | SMILES | pest or weed control at 2241.7 g/ha [%]
31 | CC(=O)CCOc1cc(Oc2ccc(C(F)(F)F)cc2Cl)ccc1[N+](=O)[O-] [Example 31] | 100
32 | O=C(O)COc1cc(Oc2ccc(C(F)(F)F)cc2Cl)ccc1[N+](=O)[O-] [Example 23] | 100
33 | CC(Oc1cc(Oc2ccc(C(F)(F)F)cc2Cl)ccc1[N+](=O)[O-])C(=O)O (stereo not drawn) [Example 25, 2-Chloro-α,α,α-trifluoro-p-tolyl-3-(1-carboxyethoxy)-4-nitrophenyl ether] | 100
34 | CCOCCOc1cc(Oc2ccc(C(F)(F)F)cc2Cl)ccc1[N+](=O)[O-] [Example 16] | 94
35 | O=[N+]([O-])c1ccc(Oc2ccc(C(F)(F)F)cc2Cl)cc1O [Example 10, 2-Chloro-α,α,α-trifluoro-p-tolyl-3-hydroxy-4-nitrophenyl ether] | 85

Same assay, conditions: post-emergence, 336 h, 4 lb./A., about 2 weeks, read-out: % control (percent of plants killed)

Row | SMILES | pest or weed control at 4483.4 g/ha [%]
36 | CC(=O)CCOc1cc(Oc2ccc(C(F)(F)F)cc2Cl)ccc1[N+](=O)[O-] [Example 31] | 100
37 | O=C(O)COc1cc(Oc2ccc(C(F)(F)F)cc2Cl)ccc1[N+](=O)[O-] [Example 23] | 100
38 | CC(Oc1cc(Oc2ccc(C(F)(F)F)cc2Cl)ccc1[N+](=O)[O-])C(=O)O (stereo not drawn) [Example 25, 2-Chloro-α,α,α-trifluoro-p-tolyl-3-(1-carboxyethoxy)-4-nitrophenyl ether] | 100
39 | CCOCCOc1cc(Oc2ccc(C(F)(F)F)cc2Cl)ccc1[N+](=O)[O-] [Example 16] | 96
40 | O=[N+]([O-])c1ccc(Oc2ccc(C(F)(F)F)cc2Cl)cc1O [Example 10, 2-Chloro-α,α,α-trifluoro-p-tolyl-3-hydroxy-4-nitrophenyl ether] | 98
